Source: patent publication US20120208781A1, “AMINOGLYCOSIDE DOSING REGIMENS” (Achaogen, Inc., priority 2009, published 2012)
Converted amounts (≈) assume the structure as drawn. Where two headings read alike, the source gives them in different places.

Tests used:
rat kidney [1] = experiment: Rat nephrotoxicity model: serum markers of GFR (BUN, serum creatinine); assay type: in vivo, Sprague-Dawley rats; conditions: dose-response for BUN elevation
rat kidney [2] = experiment: Rat nephrotoxicity model: kidney histopathology (H&E); assay type: in vivo, Sprague-Dawley rats; conditions: rats, 14 d once-daily
Description: This rat nephrotoxicity study design used 14 days of once-daily dosing of aminoglycosides in adult Sprague-Dawley rats. Rats were allowed full access to food and water, and aminoglycosides were dosed subcutaneously at 1 mL/kg dosing volume, formulated in water. Nephrotoxicity was assessed by monitoring changes in serum markers of glomerular filtration rate (GFR), namely blood urea nitrogen (BUN) and serum creatinine. Microscopic examination of kidney slices after fixation and hematoxylin and eosin (H&E) staining was also utilized, scoring for tubular dilation, cellular casts, interstitial inflammation, and regenerative changes to the tubules.

[3] = tested on: Gram-negative and Gram-positive clinical isolates; experiment: MIC, CLSI broth microdilution, 235 worldwide isolates (all); assay type: cell-based; conditions: 235 isolates
Source text: In the first study, a total of 235 isolates were collected from medical centers worldwide and tested for susceptibility to Compound 1 and comparator agents by CLSI broth microdilution methods. […] Non-ENT GN pathogens included WT P. aeruginosa (PSA) and Acinetobacter spp. (ACB), and carbapenem (CARB)-R strains, including those with MBL and OXA enzymes, SA and coagulase-negative staphylococci (CoNS) included oxacillin-susceptible (MSSA/MS-CoNS) and —R (MRSA/MR-CoNS) strains.
(§1) Minimum inhibitory concentrations (MIC) were determined by reference Clinical and Laboratory Standards Institute (CLSI) broth microdilution methods per M7-A7 [2006]. Briefly, serial two-fold dilutions of Compound 1 and comparator AGs (together, “the test compounds”) were prepared at 2× concentration in appropriate diluent. The dilutions were mixed in 96-well assay plates with bacterial inoculum. Bacteria were suspended in sterile saline and added to each assay plate to obtain a final concentration of 5.5×10^5 CFU/mL. The plates were incubated at 35° C. for 20 hours in ambient air. […] After incubation, assay plates were read using a microtiter plate reader at 600 nm.

P. aeruginosa (PA) = experiment: MIC, broth microdilution, Brooklyn hospital isolates: P. aeruginosa; assay type: cell-based; conditions: PA (n = 33)
Description: (§2) In another study, the activity of Compound 1 against a collection of contemporary Gram-negative bacteria was determined. Unique patient isolates of P. aeruginosa (PA), A. baumannii (AB), K. pneumoniae (KP), E. coli (EC), and Enterobacter spp. (EB) from prior surveys at 16 Brooklyn, N.Y. hospitals were selected based on resistance patterns. The majority of isolates were fingerprinted by automated ribotyping. MICs were performed by broth microdilution. PCR was used to identify aminoglycoside-modifying enzymes (AMEs) in AB and KP and the KPC gene in Enterobacteriaceae (EN). The expression of the efflux genes mexA, C, E and X in PA, and adeB in AB was assessed by real-time RT-PCR.

A. baumannii (AB) = experiment: MIC, broth microdilution, Brooklyn hospital isolates: A. baumannii; assay type: cell-based; conditions: AB (n = 38)
Description: as §2

K. pneumoniae (KP) = experiment: MIC, broth microdilution, Brooklyn hospital isolates: K. pneumoniae; assay type: cell-based; conditions: KP (n = 71)
Description: as §2

E. coli (EC) = experiment: MIC, broth microdilution, Brooklyn hospital isolates: E. coli; assay type: cell-based; conditions: EC (n = 32)
Description: as §2

Enterobacter spp. (EB) = experiment: MIC, broth microdilution, Brooklyn hospital isolates: Enterobacter spp.; assay type: cell-based; conditions: EB (n = 30)
Description: as §2

hearing function = conditions: guinea pig, in vivo
Description: The ototoxicity of aminoglycosides was investigated in 28-day studies in guinea pigs (executed at MPI Research Inc., Mattawan, Mich.). […] Animals assigned to the study had body weights within ±20% of the mean body weight. The vehicle and positive control articles were administered daily for 14 days during the study via bolus subcutaneous injection in the scapular region on the back of each animal. The control group received the vehicle in the same manner as the treated groups. Individual doses were based on the most recent body weights. […] The dose levels for these studies were selected based upon published accounts of aminoglycoside ototoxicity in the guinea pig using similar dosing regimes (e.g., Brummett, A. R. et al., J. Antimicrob Chemother, 1978 May; 4 Suppl A:73-83; Kitasato, I. et al., Chemotherapy, 1990; 36(2):155-68). Doses were chosen to maximize exposure while avoiding significant nephrotoxicity, which would have confounded the analysis given that aminoglycosides are renally cleared.
Clinical observations were conducted predose (Day 1), immediately following the completion of each vehicle or positive control article administration on dosing days, and daily thereafter. Body weights were measured and recorded predose (Day 1) and daily thereafter. Physical examinations were conducted pretest and on Day 28.
Bilateral in-vivo electrophysiology (auditory brainstem response) examinations were conducted pretest and prior to the terminal necropsy. Hearing function changes were measured by comparing auditory brainstem response (ABR) values at the end of the study period versus pre-dosing values of each individual animal. […] Additional ketamine and xylazine were administered as necessary. […] Following ABR evaluations, yohimbine (1 mg/kg) was administered via intraperitoneal (IP) injection as a reversal agent. At study termination (Day 29), necropsy examinations were performed, and designated tissues were collected, examined and rated, and preserved for processing and histopathological evaluation, as described below.

cochlear hair cells = experiment: Cytocochleogram analysis in 28-day guinea pig ototoxicity model; assay type: in vivo, guinea pigs; conditions: guinea pigs
Description: Following euthanasia and whole body intravascular perfusion with 4% paraformaldehyde, the temporal bones of the left and right ears were removed. Gross middle ear assessments were performed using a dissecting microscope. […] Following gross middle ear assessment, the cochleas of the left ear were fixed by intrascalar perfusion with 4% paraformaldehyde. Cochlea tissues of both ears were placed in 4% paraformaldehyde for approximately 1 hour. Tissues were then transferred to 0.5% paraformaldehyde, stored refrigerated, and shipped on gel packs to the Kresge Hearing Research Institute, Ann Arbor, Mich., for further processing and cytocochleogram analysis.
These guinea pig ototoxicity studies also included microscopic analysis of surgically dissected cochleas from each animal to assess hair cell damage (cytocochleograms). The underlying cause of aminoglycoside related hearing loss is damage to the hair cells of the auditory system after significant accumulation of aminoglycosides in the inner ear. In the cochlea, drug-induced hair cell loss typically progresses from the basal to the apical turns of the cochlea. Perception of high-frequency sounds, a function of the basal hair cells, is lost first; perception of low-frequency sounds, a function of the more apical hair cells, is the last to be lost (Selimoglu, E., Curr Pharm Des. 2007; 13(1):119-26). For obvious reasons, it is impractical to obtain cytocochleograms from each animal prior to dosing, and some hair cell loss is usually observed in control (vehicle dosed) animals in these guinea pig studies. This variability makes it difficult to determine whether hair cell loss observed post-treatment is due to the drug treatment, especially mild hair cell loss, […]

E. coli = experiment: MIC, further Brooklyn patient isolates: E. coli; assay type: cell-based; parameters: unit not given beside the values; conditions: E. coli (n = 3071)
Description: as §1
(§3) Further studies analyzed a greater number of unique patient isolates obtained from Brooklyn, N.Y. hospitals (including those species described above). These species included Acinetobacter, E. coli, Enterobacter, Klebsiella, and Pseudomonas.

Klebsiella = experiment: MIC, further Brooklyn patient isolates: Klebsiella; assay type: cell-based; parameters: unit not given beside the values; conditions: Klebsiella (n = 1151)
Description: as §1, §3

Enterobacter = experiment: MIC, further Brooklyn patient isolates: Enterobacter; assay type: cell-based; parameters: unit not given beside the values; conditions: Enterobacter (n = 206)
Description: as §1, §3

## NCC[C@H](O)C(=O)N[C@@H]1C[C@H](N)[C@@H](O[C@H]2O[C@H](CN)[C@@H](O)[C@H](O)[C@H]2O)[C@H](O)[C@H]1O[C@H]1O[C@H](CO)[C@@H](O)[C@H](N)[C@H]1O [amikacin]
Rat kidney [1]
  apparent relative nephrotoxicity (ranking): Neomycin≈Gentamicin>Tobramycin>Apramycin≈Paromomycin>Amikacin
Rat kidney [2]; 10 mg/kg
  Histopathology score (0 to 5 Scale): Casts: 0 +/− 0
  Histopathology score (0 to 5 Scale): Dilation: 0.2 +/− 0.4
  Histopathology score (0 to 5 Scale): Inflammation: 0.4 +/− 0.5
  Histopathology score (0 to 5 Scale): Regeneration: 0.2 +/− 0.4
Rat kidney [2]; 30 mg/kg
  Histopathology score (0 to 5 Scale): Casts: 0 +/− 0
  Histopathology score (0 to 5 Scale): Dilation: 0 +/− 0
  Histopathology score (0 to 5 Scale): Inflammation: 0.4 +/− 0.5
  Histopathology score (0 to 5 Scale): Regeneration: 0.2 +/− 0.4
Rat kidney [2]; 100 mg/kg
  Histopathology score (0 to 5 Scale): Casts: 0 +/− 0
  Histopathology score (0 to 5 Scale): Dilation: 0.2 +/− 0.4
  Histopathology score (0 to 5 Scale): Inflammation: 0.6 +/− 0.5
  Histopathology score (0 to 5 Scale): Regeneration: 0.6 +/− 0.5
Rat kidney [2]; 300 mg/kg
  Histopathology score (0 to 5 Scale): Casts: 0 +/− 0
  Histopathology score (0 to 5 Scale): Dilation: 1.2 +/− 0.8
  Histopathology score (0 to 5 Scale): Inflammation: 1.2 +/− 0.4
  Histopathology score (0 to 5 Scale): Regeneration: 1.4 +/− 0.5
[3]
  overall sensitivity (S): 77.0%
P. aeruginosa (PA)
  Susceptible: 94%
P. aeruginosa (PA); Pseudomonas aeruginosa
  MIC50: 4 µg/mL (≈ 6.83 µM)
  MIC90: 16 µg/mL (≈ 27.3 µM)
A. baumannii (AB)
  Susceptible: 82%
A. baumannii (AB); Acinetobacter baumannii
  MIC50: 8 µg/mL (≈ 13.7 µM)
  MIC90: 64 µg/mL (≈ 109 µM)
K. pneumoniae (KP)
  Susceptible: 58%
K. pneumoniae (KP); Klebsiella pneumoniae
  MIC50: 16 µg/mL (≈ 27.3 µM)
  MIC90: 64 µg/mL (≈ 109 µM)
E. coli (EC)
  Susceptible: 91%
E. coli (EC); Escherichia coli
  MIC50: 4 µg/mL (≈ 6.83 µM)
  MIC90: 16 µg/mL (≈ 27.3 µM)
Enterobacter spp. (EB)
  Susceptible: 93%
Enterobacter spp. (EB); Enterobacter
  MIC50: 4 µg/mL (≈ 6.83 µM)
  MIC90: 16 µg/mL (≈ 27.3 µM)
Hearing function
  clinical observations, body weights, physical examinations, macroscopic observations: no vehicle or positive control article-related changes in any dose group
Hearing function; male, Crl:HA (Albino Hartley), 75 mg/kg, 14 days
  number of animals with hearing loss: 1 of 6
Hearing function; male, Crl:HA (Albino Hartley), 150 mg/kg, 14 days
  number of animals with hearing loss: 2 of 6
Hearing function; male, Crl:HA (Albino Hartley), 300 mg/kg/day, 14 days
  ABR threshold shift: > 15 dB
Hearing function; male, Crl:HA (Albino Hartley), sc, 300 mg/kg, 14 days
  hearing loss (ABR threshold changes): hearing losses from moderate at 4 kHz, to severe at 10 kHz, and to profound at 20 kHz
Cochlear hair cells; 75 mg/kg/day
  animals with minimal loss of outer hair cells: 3/6
Cochlear hair cells; 150 mg/kg/day
  animals with minimal loss of outer hair cells: 3/6
Cochlear hair cells; 300 mg/kg/day
  animals with large loss of outer hair cells: All animals
  animals with some loss of inner hair cells: 3/6

## C[C@@H](O)[C@H]1C(=O)N2C(C(=O)O)=C(S[C@@H]3CN[C@H](C(=O)N(C)C)C3)[C@H](C)[C@H]12 [MEM, meropenem]
E. coli
  MIC50: ≦0.125
  MIC90: ≦0.125
Klebsiella
  MIC50: ≦0.125
Enterobacter
  MIC50: ≦0.125
